In paper PMC5520691, “An enhanced bioluminescence-based Annexin V probe for apoptosis detection in vitro and in vivo” (Cell Death & Disease, 2017) one finds Kd data, which are given here for one compound.

This assay addresses T1, ArFP (Annexin V-Renilla luciferase RLuc8 fusion protein) (Homo sapiens, UniProt P08758).
T1 construct: gene ANXA5; Annexin V fused N-terminal to the RLuc8 reporter (Renilla reniformis luciferase mutant) via a short linker (GGSGGS by the primers); N-terminal 6xHis tag, pET-30 Xa/LIC, E. coli T7 Express, Ni-NTA; primers cover the Annexin V start (ATGGCACAGGTTCTC, MAQVL) and end (CGEDD)
T1 sequence (P08758 1-320): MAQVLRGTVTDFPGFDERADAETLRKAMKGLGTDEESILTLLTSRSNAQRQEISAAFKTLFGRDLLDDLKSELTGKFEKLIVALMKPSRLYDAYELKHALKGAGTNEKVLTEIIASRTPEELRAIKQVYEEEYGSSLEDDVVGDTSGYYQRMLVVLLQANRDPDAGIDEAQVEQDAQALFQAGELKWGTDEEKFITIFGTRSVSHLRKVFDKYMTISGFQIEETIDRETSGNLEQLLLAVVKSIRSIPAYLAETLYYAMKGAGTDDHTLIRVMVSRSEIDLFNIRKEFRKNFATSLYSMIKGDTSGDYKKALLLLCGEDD
The experiment in a line: isothermal titration calorimetry, vesicles titrated into protein, independent binding model. The settings on record: read-out: Binding affinity for PS (KD).

Consider `CCCCCCCC/C=C\CCCCCCCC(=O)O[C@H](COC(=O)CCCCCCCCCCCCCCC)COP(=O)(O)OC[C@H](N)C(=O)O` [POPS, 1-palmitoyl-2-oleoyl-sn-glycero-3-[phospho-L-serine]], for which the Kd – broadly, the equilibrium constant for the complex coming apart – came out at 20.7 µM.
